# Tested on: GM01896 cells (MPS II dermal fibroblasts)
# Assay: Assay 1: MPS cellular assay, MPS II (heparan sulfate disaccharide biomarkers by LC-MS)
# Assay type: cell-based, human
# Details: Assay 1 for MPS II, heparan sulfate disaccharide biomarkers (I2a4, I2a6, I2S0 and/or I2S6), read-out: IC50 Range
# Procedure, shortened: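 Heparan sulfate disaccharide biomarkers quantified by LC-MS after heparinase I/II/III digestion and isotopic aniline labelling, using GM01896 MPS II fibroblasts exposed to compound (at or below 30 μM, 4-21 days). Values given as IC50 by curve fitting; cell viability checked with alamar blue or ATP.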
row,Structure (SMILES),IC50
1,"CN(C)C(=O)c1ccc(Nc2cc(-c3ccc4cnn(C)c4c3)nc(N3CCOCC3)n2)cc1 [N,N-dimethyl(4-{[6-(1-methyl(1H-indazol-6-yl))-2-morphlin-4-ylpyrimidin-4-yl]amino}phenyl)carboxamide]",500 to 1000 nM

# Same assay, conditions: Homo sapiens, Fibroblast, Assay 1 for MPS II, heparan sulfate disaccharide biomarkers (I2a4, I2a6, I2S0 and/or I2S6), read-out: IC50 Range
row,Structure (SMILES),IC50
1,Cn1ncc2ccc(-c3cc(Nc4ccc(C(=O)NC5(C)CC5)cc4)nc(N4CCOCC4)n3)cc21 [(4-{[6-(1-methyl(1H-indazol-6-yl))-2-morpholin-4-ylpyrimidin-4-yl]amino}phenyl)-N-(methylcyclopropyl)carboxamide],1000 to 5000 nM
2,CC(C)NC(=O)c1ccc(Nc2cc(-c3ccc4cnn(C)c4c3)nc(N3CCOCC3)n2)cc1 [(4-{[6-(1-methyl(1H-indazol-6-yl))-2-morpholin-4-ylpyrimidin-4-yl]amino}phenyl)-N-(methylethyl)carboxamide],500 to 1000 nM
3,Cn1cnc2ccc(-c3cc(Nc4ccc(NS(C)(=O)=O)cc4)nc(N4CCOCC4)n3)cc21 [(4-{[6-(1-methylbenzimidazol-6-yl)-2-morpholin-4-ylpyrimidin-4-yl]amino}phenyl)(methylsulfonyl)amine],1000 to 5000 nM
4,CC(C)NC(=O)c1ccc(Nc2cc(-c3ccc4ncn(C)c4c3)nc(N3CCOCC3)n2)cc1 [(4-{[6-(1-methylbenzimidazol-6-yl)-2-morpholin-4-ylpyrimidin-4-yl]amino}phenyl)-N-(methylethyl)carboxamide],1000 to 5000 nM
5,CNC(=O)c1ccc(Nc2cc(-c3ccc4cnn(C5CC5)c4c3)nc(N3CCOCC3)n2)cn1 [(5-{[6-(1-cyclopropyl(1H-indazol-6-yl))-2-morpholin-4-ylpyrimidin-4-yl]amino}(2-pyridyl))-N-methylcarboxamide],< 500 nM
6,CNC(=O)c1ccc(Nc2cc(-c3ccc4ncn(C5CC5)c4c3)nc(N3CCOCC3)n2)cn1 [(5-{[6-(1-cyclopropylbenzimidazol-6-yl)-2-morpholin-4-ylpyrimidin-4-yl]amino}(2-pyridyl))-N-methylcarboxamide],500 to 1000 nM
7,Clc1ccc(Nc2cc(-c3ccc4nc[nH]c4c3)nc(N3CCOCC3)n2)cc1 [(6-benzimidazol-6-yl-2-morpholin-4-ylpyrimidin-4-yl)(4-chlorophenyl)amine],500 to 1000 nM
8,CN(C)c1nn(C)c2cc(-c3cc(Nc4ccc(Cl)cc4)nc(N4CCOCC4)n3)ccc12 [(6-{6-[(4-chlorophenyl)amino]-2-morpholin-4-ylpyrimidin-4-yl}-1-methyl(1H-indazol-3-yl))dimethylamine],1000 to 5000 nM
9,Cn1cnc2ccc(-c3cc(Nc4ccc(NC(=O)OC(C)(C)C)cc4)nc(N4CCOCC4)n3)cc21 [(tert-butoxy)-N-(4-{[6-(1-methylbenzimidazol-6-yl)-2-morpholin-4-ylpyrimidin-4-yl]amino}phenyl)carboxamide],1000 to 5000 nM
10,Clc1ccc(Nc2cc(-c3cccc4[nH]ncc34)nc(N3CCOCC3)n2)cc1 [N-(4-chlorophenyl)-6-(1H-indazol-4-yl)-2-morpholinopyrimidin-4-amine],500 to 1000 nM
11,Clc1ccc(Nc2cc(-c3ccc4[nH]ncc4c3)nc(N3CCOCC3)n2)cc1 [N-(4-chlorophenyl)-6-(1H-indazol-5-yl)-2-morpholinopyrimidin-4-amine],1000 to 5000 nM
12,Clc1ccc(Nc2cc(-c3ccc4cn[nH]c4c3)nc(N3CCOCC3)n2)cc1 [N-(4-chlorophenyl)-6-(1H-indazol-6-yl)-2-morpholinopyrimidin-4-amine],1000 to 5000 nM
13,CC(=O)Nc1ccc(Nc2cc(-c3ccc4cnn(C)c4c3)nc(N3CCOCC3)n2)cc1 [N-(4-{[6-(1-methyl(1H-indazol-6-yl))-2-morpholin-4-ylpyrimidin-4-yl]amino}phenyl)acetamide],500 to 1000 nM
14,CC(=O)Nc1ccc(Nc2cc(-c3ccc4ncn(C)c4c3)nc(N3CCOCC3)n2)cc1 [N-(4-{[6-(1-methylbenzimidazol-6-yl)-2-morpholin-4-ylpyrimidin-4-yl]amino}phenyl)acetamide],500 to 1000 nM
15,Cn1cnc2ccc(-c3cc(Nc4ccc(C(=O)NCC5CC5)cc4)nc(N4CCOCC4)n3)cc21 [N-(cyclopropylmethyl)(4-{[6-(1-methylbenzimidazol-6-yl)-2-morpholin-4-ylpyrimidin-4-yl]amino}phenyl)carboxamide],500 to 1000 nM
16,Cn1ncc2ccc(-c3cc(Nc4ccc(C(=O)NC5CC5)cc4)nc(N4CCOCC4)n3)cc21 [N-cyclopropyl(4-{[6-(1-methyl(1H-indazol-6-yl))-2-morpholin-4-ylpyrimidin-4-yl]amino}phenyl)carboxamide],1000 to 5000 nM
17,Cn1cnc2ccc(-c3cc(Nc4ccc(C(=O)NC5CC5)cc4)nc(N4CCOCC4)n3)cc21 [N-cyclopropyl(4-{[6-(1-methylbenzimidazol-6-yl)-2-morpholin-4-ylpyrimidin-4-yl]amino}phenyl)carboxamide],1000 to 5000 nM
18,Cn1cnc2ccc(-c3cc(Nc4ccc(C(=O)NC5CC5)nc4)nc(N4CCOCC4)n3)cc21 [N-cyclopropyl(5-{[6-(1-methylbenzimidazol-6-yl)-2-morpholin-4-ylpyrimidin-4-yl]amino}(2-pyridyl))carboxamide],500 to 1000 nM

row,Structure (SMILES),IC50
1,CCNC(=O)c1ccc(Nc2cc(-c3ccc4cnn(C)c4c3)nc(N3CCOCC3)n2)cc1 [N-ethyl(4-{[6-(1-methyl(1H-indazol-6-yl))-2-morpholin-4-ylpyrimidin-4-yl]amino}phenyl)carboxamide],500 to 1000 nM
2,CCNC(=O)c1ccc(Nc2cc(-c3ccc4ncn(C)c4c3)nc(N3CCOCC3)n2)cc1 [N-ethyl(4-{[6-(1-methylbenzimidazol-6-yl)-2-morpholin-4-ylpyrimidin-4-yl]amino}phenyl)carboxamide],1000 to 5000 nM
3,CNC(=O)c1ccc(Nc2cc(-c3ccc4c(cnn4C)c3)nc(N3CCOCC3)n2)cc1 [N-methyl(4-{[6-(1-methyl(1H-indazol-5-yl))-2-morpholin-4-ylpyrimidin-4-yl]amino}phenyl)carboxamide],500 to 1000 nM
4,CNC(=O)c1ccc(Nc2cc(-c3ccc4cnn(C)c4c3)nc(N3CCOCC3)n2)cc1 [N-methyl(4-{[6-(1-methyl(1H-indazol-6-yl))-2-morpholin-4-ylpyrimidin-4-yl]amino}phenyl)carboxamide],< 500 nM
5,CNC(=O)c1ccc(Nc2cc(-c3ccc4c(c3)ncn4C)nc(N3CCOCC3)n2)cc1 [N-methyl(4-{[6-(1-methylbenzimidazol-5-yl)-2-morpholin-4-ylpyrimidin-4-yl]amino}phenyl)carboxamide],< 500 nM
6,CNC(=O)c1ccc(Nc2cc(-c3ccc4ncn(C)c4c3)nc(N3CCOCC3)n2)cc1 [N-methyl(4-{[6-(1-methylbenzimidazol-6-yl)-2-morpholin-4-ylpyrimidin-4-yl]amino}phenyl)carboxamide],< 500 nM
7,CNC(=O)c1ccc(Nc2cc(-c3ccc4c(cnn4C)c3)nc(N3CCOCC3)n2)cn1 [N-methyl(5-{[6-(1-methyl(1H-indazol-5-yl))-2-morpholin-4-ylpyrimidin-4-yl]amino}(2-pyridyl))carboxamide],500 to 1000 nM
8,CNC(=O)c1ccc(Nc2cc(-c3ccc4cnn(C)c4c3)nc(N3CCOCC3)n2)cn1 [N-methyl(5-{[6-(1-methyl(1H-indazol-6-yl))-2-morpholin-4-ylpyrimidin-4-yl]amino}(2-pyridyl))carboxamide],500 to 1000 nM
9,CNC(=O)c1ccc(Nc2cc(-c3ccc4c(c3)ncn4C)nc(N3CCOCC3)n2)cn1 [N-methyl(5-{[6-(1-methylbenzimidazol-5-yl)-2-morpholin-4-ylpyrimidin-4-yl]amino}(2-pyridyl))carboxamide],500 to 1000 nM
10,CNC(=O)c1ccc(Nc2cc(-c3ccc4ncn(C)c4c3)nc(N3CCOCC3)n2)cn1 [N-methyl(5-{[6-(1-methylbenzimidazol-6-yl)-2-morpholin-4-ylpyrimidin-4-yl]amino}(2-pyridyl))carboxamide],500 to 1000 nM
11,CNC(=O)c1ccc(Nc2cc(-c3ccc4c(cnn4CCN4CCOCC4)c3)nc(N3CCOCC3)n2)cc1 [N-methyl[4-({2-morpholin-4-yl-6-[1-(2-morpholin-4-ylethyl)(1H-indazol-5-yl)]pyrimidin-4-yl}amino)phenyl]carboxamide],500 to 1000 nM
12,CNC(=O)c1ccc(Nc2cc(-c3ccc4cnn(CCN5CCOCC5)c4c3)nc(N3CCOCC3)n2)cc1 [N-methyl[4-({2-morpholin-4-yl-6-[1-(2-morpholin-4-ylethyl)(1H-indazol-6-yl)]pyrimidin-4-yl}amino)phenyl]carboxamide],500 to 1000 nM
13,CNC(=O)c1ccc(Nc2cc(-c3ccc4c(c3)ncn4CCN3CCOCC3)nc(N3CCOCC3)n2)cc1 [N-methyl[4-({2-morpholin-4-yl-6-[1-(2-morpholin-4-ylethyl)benzimidazol-5-yl]pyrimidin-4-yl}amino)phenyl]carboxamide],500 to 1000 nM
14,CNC(=O)c1ccc(Nc2cc(-c3ccc4ncn(CCN5CCOCC5)c4c3)nc(N3CCOCC3)n2)cc1 [N-methyl[4-({2-morpholin-4-yl-6-[1-(2-morpholin-4-ylethyl)benzimidazol-6-yl]pyrimidin-4-yl}amino)phenyl]carboxamide],500 to 1000 nM
15,CNC(=O)c1ccc(Nc2cc(-c3ccc4cnn(CCN5CCCC5)c4c3)nc(N3CCOCC3)n2)cc1 [N-methyl[4-({2-morpholin-4-yl-6-[1-(2-pyrrolidinylethyl)(1H-indazol-6-yl)]pyrimidin-4-yl}amino)phenyl]carboxamide],500 to 1000 nM
16,CNC(=O)c1ccc(Nc2cc(-c3ccc4ncn(CCN5CCCC5)c4c3)nc(N3CCOCC3)n2)cc1 [N-methyl[4-({2-morpholin-4-yl-6-[1-(2-pyrrolidinylethyl)benzimidazol-6-yl]pyrimidin-4-yl}amino)phenyl]carboxamide],1000 to 5000 nM
17,CNC(=O)c1ccc(Nc2cc(-c3ccc4c(cnn4CCCN4CCOCC4)c3)nc(N3CCOCC3)n2)cc1 [N-methyl[4-({2-morpholin-4-yl-6-[1-(3-morpholin-4-ylpropyl)(1H-indazol-5-yl)]pyrimidin-4-yl}amino)phenyl]carboxamide],1000 to 5000 nM

# From patent US20190151312A1, “HEPARAN SULFATE BIOSYNTHESIS INHIBITORS FOR THE TREATMENT OF DISEASES” (BioMarin Pharmaceutical Inc., priority 2014, published 2019)
